Test results taken from patent publication US8168232B2, “Formulations and methods of using nitric oxide mimetics in cancer treatment” (priority 2000, dated 2012).
Counter-ions that a name gives are not always drawn.

Tests used:
uPAR mRNA = experiment: Northern blot analysis of uPAR mRNA in MDA-MB-231 breast carcinoma cells; format: cell-based, human
uPAR protein = experiment: Western blot analysis of uPAR protein in MDA-MB-231 breast carcinoma cells; format: cell-based, human
Protocol: Following incubations, the cells were lysed using a buffer containing 40 mM HEPES pH 7.2, 100 mM NaCl, 20% glycerol, 0.1 mM EDTA pH 8.0, 0.2% Triton X-100, 1 mM DTT, and 2 mM PMSF. The lysates were then subjected to homogenization, DNA shearing (10 times with a 25⅝-gauge needle), boiling (5 minutes) and centrifugation (15 minutes, 14000 g). The supernatant was collected and stored at −80° C. until use. The samples were subjected to SDS-polyacrylamide gel electrophoresis (PAGE) and the resolved proteins were transferred to an Immobilon-P membrane using a wet transfer apparatus (Bio-Rad Laboratories, Mississauga, ON). The membranes were blocked overnight at 4° C. in a solution containing 1% PBS, and 0.01% Tween20 (PBS-T) as well as 5% casein. The blots were subsequently incubated for 1.5 hours with the monoclonal anti-uPAR antibody [MoAb 3937], followed by six 5 minute washes with PBS-T. The membranes were then incubated with a horseradish peroxidase labeled goat anti-mouse IgG secondary antibody for 1.5 hours. Following six additional 5 minute washes with PBS-T, the antigen was detected by enhanced chemiluminescence and the blots were exposed onto Dupont Reflection NEF film.
Following incubation, the cells were lysed using a buffer containing 40 mM HEPES pH 7.2, 100 mM NaCl, 20% glycerol, 0.1 mM EDTA pH 8.0, 0.2% Triton X-100, 1 mM dithiothreitol (DTT), and 2 mM phenylmethyl sulfonyl fluoride (PMSF). The lysates were then subjected to homogenization, DNA shearing (10 times with a 25⅝-gauge needle), boiling (5 minutes) and centrifugation (15 minutes at 14,000×g). The supernatant was collected and stored at −80° C. until use. The samples were subjected to SDS-polyacrylamide gel electrophoresis (PAGE) and the resolved proteins were transferred to an Immobilon-P membrane (Millipore Corp., Bedford, Mass.) using a wet transfer apparatus (BioRad Laboratories, Mississauga, ON). The membranes were blocked overnight at 4° C. in a solution containing 1% PBS, and 0.01% Tween 20 (PBS-T) as well as 5% dry milk powder. The blots were subsequently incubated for 1.5 hours with the monoclonal anti-uPAR (MoAb 3937; American Diagnostica Inc., Greenwich, Conn.), or a polyclonal soluble guanylate cyclase (sGC) antiserum (Cayman Chemical, Ann Arbor, Mich.) followed by six 5-minute washes with PBS-T. Subsequently, the uPAR membranes were incubated for 1 hour with a horseradish peroxidase labelled goat anti-mouse IgG secondary antibody (Bio-Rad, Hercules, Calif.) and the sGC membranes were incubated for 1 hour with a goat anti-rabbit IgG horseradish peroxidase conjugate (VECTOR Laboratories Inc., Burlingame, Calif.). Following six additional 5-minute washes with PBS-T, the antigen was detected by enhanced chemiluminescence (Amersham Canada Inc., Mississauga, ON) and the blots were exposed onto Dupont Reflection NEF film.

[1] = tested on: MDA-MB-231 breast carcinoma cells; experiment: In vitro Matrigel invasion assay, MDA-MB-231; format: cell-based, human
Protocol: The chambers consist of cell culture inserts, 6.5 mm in diameter and with a 8 μm pore size membrane. Each membrane was coated with 100 μL of a 1 mg/mL solution of Matrigel diluted in cold serum-free culture medium (EX-CELL 300), and allowed to dry in a laminar flow cabinet for approximately 12 hours. The Matrigel was then rehydrated by incubating it with 100 μL of serum-free medium for approximately 1 hour. After rehydration, cell suspensions containing 5.0×10^4 or 1.0×10^5 cells in 100 μL of medium, containing both serum and the nitric oxide treatments, were added to each well. Culture medium containing serum and the respective nitric oxide treatment were then added to each insert. The cells were incubated for 24 hours under either hypoxic (1% O2) or control (20% O2) conditions. Following incubation, the non-invading cells were removed from the upper surface of the membrane by wiping with a cotton swab. The cells on the lower surface of the membrane were fixed for 10 minutes with Carnoy's fixative (25% acetic acid, 75% methanol), and then stained for approximately 3 hours with a 1% toluidine blue, 1% sodium borate solution. Following a rinse in phosphate-buffered saline (PBS), the membrane was removed from the insert housing with a small scalpel blade, mounted onto a microscope slide and coverslipped. Invading cells were then viewed under the microscope at 40× magnification and counted. The invasion index for each treatment was calculated by dividing the number of invading cells by the number of cells which invaded under standard conditions. This value was then multiplied by 100 to obtain a percentage. The standard was given a value of 100% and the treatment values were converted to a percentage of the standard. The results were tested for statistical significance using either the Tukey test for pair-wise multiple comparison procedures or the Student-Newman-Keuls method for pair-wise multiple comparison procedures.
The chambers consisted of 6.5-mm inserts with 8-μm pore membranes (Corning Costar Corp., Cambridge, Mass.). Each membrane was coated with 100 μL of a 2.6 mg/mL solution of Matrigel (Collaborative Biochemical Products, Bedford, Mass.) diluted in cold serum-free medium (EX-CELL 300; JRH Biosciences, Lenexa, Kans.), and allowed to dry in a laminar flow cabinet for approximately 12 hours. The Matrigel was then rehydrated with 100 μL of serum-free medium for approximately 1 hour. […] Invading cells were then viewed under the microscope at 40× magnification and counted. The invasion index for each treatment was calculated by dividing the number of invading cells by the number of cells that invaded under standard (20% oxygen) conditions. Invasion indices were expressed as percentages of control (20% oxygen) values. […]

[2] = tested on: Bl6F10 metastatic melanoma cells; experiment: In vivo experimental metastasis (lung colonization) model; parameters: species or system C57BL6 mice; conditions: cells cultured in 1% O2 with 8-Br-cGMP (1 μM)
Protocol: C57BL6 mice were injected i.v. (tail vein) with a bolus of 5×10^4-10^5 Bl6F10 metastatic melanoma cells. Immediately after the tail vein injection, mice were randomly divided into groups of 15 and mice in each group were placed in plexiglass chambers (approximately 3 L) which were continuously flushed with gas mixtures of 20% O2:balance N2 and 10% O2:balance N2, respectively. […] After a 24 hour exposure to an atmosphere of either 20% O2 or 10% O2, mice were removed from the chambers and placed in regular cages kept at room air. Thirteen days later, mice were sacrificed by cervical dislocation, and lungs were removed and fixed in Bouin's fixative (Sigma). Metastatic nodules (many of which appeared black due to the presence of melanin) on the surface of the lungs were counted visually under a dissecting microscope. Data were expressed as the number of lung nodules per 10^4 cells injected and were analyzed using statistical tests for non-parametric values.
(§1) Cells were then removed from plates with trypsin and 5×10^4 cells were injected i.v. (tail vein) into C57BL6 female mice. Some of the cells treated in vitro were plated onto tissue culture dishes to determine colony-forming ability using the protocol described below in the Section I.J.
(§2) Following harvesting from culture plates, 5×10^4 cells were injected intravenously (tail vein injections) into 5-7 week old C57Bl/6 female mice. Cells were also plated in tissue culture plates to determine the effect of culture conditions on in vitro colony forming ability. Fourteen days after intravenous inoculation, mice were sacrificed and their lungs were removed and fixed in Bouin's fixative. Both melanotic and amelanotic metastatic colonies were counted under a dissecting microscope. Data were expressed as the number of lung nodules per 5×10^4 viable cells injected (as determined by in vitro colony-forming ability) and were analyzed using statistical tests for non-parametric values.

[3] = tested on: Bl6F10 mouse melanoma cells; experiment: In vitro colony-forming ability of treated Bl6F10 melanoma cells; format: cell-based; conditions: 8-Br-cGMP treatment
Protocol: as §1, §2

[4] = tested on: hypoxia-inducible factor-1; conditions: hypoxically cultured Hep3B cells; read-out: IC50 for suppression of the adaptive cellular response controlled by hypoxia-inducible factor-1; cited from earlier work
[5] = concentrations up to 500 μM; cited from earlier work
[6] = tested on: MDA-MB-231 breast carcinoma spheroids; experiment: Clonogenic survival of MDA-MB-231 spheroids after doxorubicin; format: cell-based, human
Protocol: Following initial cell plating, spheroids formed for 24, 48, 72, 96 or 120 h. At each time point, spheroids were exposed to 200 μM of doxorubicin, then disaggregated and plated for assessment of colony formation (survival).
Spheroids were allowed to form for 72 h. DETA/NO was applied for the final 24 h of spheroid formation. Spheroids were then exposed to doxorubicin for 1 h, prior to disaggregation and plating for assessment of survival by clonogenic assay.
Using human MDA-MB-231 breast carcinoma cells in clonogenic assays, survival was determined following doxorubicin exposure and NO mimetic administration to both monolayer and spheroid cultures.

[7] = 8-Br-cGMP 0.1 μM-10 μM, 24 hours, dose-dependent
[8] = 8-Br-cGMP 10^−3-10^−7 M, 0.5% O2 or DFO 100 μM

Nc1nc2c(nc(Br)n2[C@@H]2O[C@@H]3COP(=O)(O)O[C@H]3[C@H]2O)c(=O)[nH]1 [8-Br-cGMP, 8-bromoguanosine 3′:5′-cyclic monophosphate]
reduction of hypoxic upregulation of uPAR mRNA expression (uPAR mRNA; [7]): up to 100%
effect on hypoxia- and DFO-induced uPAR expression, mRNA level (uPAR mRNA; [8]): significantly abrogated
DFO-induced upregulation of uPAR mRNA expression (uPAR mRNA; 8-Br-cGMP (1 mM) as printed): complete inhibition
reduction of hypoxic upregulation of uPAR protein expression (uPAR protein; [7]): up to 100%
effect on hypoxia- and DFO-induced uPAR expression, protein level (uPAR protein; [8]): significantly abrogated
effect of hypoxia on invasiveness ([1]; 0.1 μM-1 mM, 24-h, 0.5% O2): completely inhibited
hypoxia-associated invasion ([1]; 8-Br-cGMP): significantly inhibit
hypoxic induction of metastatic lung nodules [2]: completely abrogated
viability of the cells (colony formation assay) [3]: did not affect the viability

N=c1c[n+](N2CCOCC2)[n-]o1 [3-morpholinosydnonimine]
IC50 [4]: 490 µM

O=S(=O)(NCCNC/C=C/c1ccc(Br)cc1)c1cccc2cnccc12 [H-89]
effect of forskolin on uPAR expression (uPAR mRNA; H-89 1 μM with forskolin 10 μM): prevented
uPAR expression (uPAR mRNA; H-89 1 μM, independent of oxygenation): up-regulation
invasiveness ([1]; H-89 1 μM alone): independently enhanced invasiveness
effect of forskolin on invasion ([1]; H-89 1 μM with forskolin 10 μM): prevented

CC(C)N[N+]([O-])=N[O-].[Na+] [isopropylamine-bis(nitric oxide) adduct sodium salt]
cell viability [5]: did not significantly affect cell viability

O=c1onc2cnc3ccccc3n12 [ODQ, 1H-[1,2,4]Oxadiazolo-[4,3-a]Quinoxalin-1-One]
effect on ability of GTN (10^−6 M) to abrogate hypoxic induction of uPAR, mRNA level (uPAR mRNA; ODQ 0.5 μM): substantially prevented
increase in uPAR mRNA levels (uPAR mRNA; ODQ 0.5 μM, 24 hours, vs 20% O2 alone): 2.7 fold
effect on ability of GTN (10^−6 M) to abrogate hypoxic induction of uPAR, protein level (uPAR protein; ODQ 0.5 μM): substantially prevented

NCCN(CCN)/[N+]([O-])=N/O [DETA, Diethylenetriamine/nitric oxide adduct]
attenuation of resistance to 200 μM doxorubicin associated with 3D culture [6]: 90%
survival of control (doxorubicin-untreated) cells ([6]; DETA 0.1 mM and 2 μM, GTN 0.1 nM and 1 μM): did not affect the survival

sodium trioxodinitrate (II) monohydrate
cell viability [5]: did not significantly affect cell viability

CC(=O)N(O)CCCCCNC(=O)CCC(=O)N(O)CCCCCNC(=O)CCC(=O)N(O)CCCCCN.CS(=O)(=O)O [DFO, Desferoxamine mesylate]
increase in uPAR mRNA levels (uPAR mRNA; cells cultured in the presence of DFO): 4 fold

COC(=O)[C@@]1(OC)C[C@H]2O[C@]1(C)n1c3ccccc3c3c4c(c5c6ccccc6n2c5c31)C(=O)N(C)C4 [KT5823]
effect on the effects of 8-Br-cGMP on uPAR expression (uPAR mRNA; KT5823 10 μM): significantly blunted
increase in uPAR mRNA expression (uPAR mRNA; KT5823 10 μM, 6 hours, 20% O2): 1.8 fold
increase in uPAR protein expression (uPAR protein; KT5823 10 μM, 6 hours, 20% O2): 1.8 fold

CCN(CC)[N+]([O-])=NO [diethylamine-bis(nitric oxide) adduct sodium salt]
cell viability [5]: did not significantly affect cell viability

O=NN(O)S(=O)(=O)O [N-nitrosohydroxylamine-N-sulfonate]
cell viability [5]: did not significantly affect cell viability

CCCN(CCCN)N(O)N=O [3-(n-propylamino)propylamine bis(nitric oxide) adduct]
cell viability [5]: did not significantly affect cell viability

N[C@@H](CCC(=O)N[C@@H](CSN=O)C(=O)NCC(=O)O)C(=O)O [S-nitroso-L-glutathione]
IC50 [4]: 211 µM
